Experimental data: patent US20260327263A1, “Anti-Bacterial Peptides” (priority 2023, published 2026)
Where “and” joins values, the source holds several entries; their conditions need not be identical. Equal values may be shown once. Where no end group is shown, it is not given here.

Legend:
[1] = tested on: mixed bacterial infection (PA, SA and ST); assay: Broth microdilution, mixed bacterial infection; type: cell-based; details: mixed infection
Method: Chronic wounds mostly present mixed infections where numerous pathogens colonize together.
(§1) Examination of the potency of modified short peptides against PA and SA strains was performed by using the broth microdilution protocol from the Clinical and Laboratory Standards Institute (CLSI) guidelines (CLSI 2012) as described. Briefly, five freshly plated bacteria colonies were grown in cation adjusted MH2 broth (BD Biosciences) in a shaker incubator at 37° C., 220 RPM. Cells were grown to an optical density (OD600) of ~0.2 measured using a Microplate Spectrophotometer (Molecular Devices Spectra Max Plus). 100 μL of microbial culture containing ~5×10^5 CFU/mL of bacteria in the respective broths were introduced into each well containing 100 μL of peptides and incubated overnight at 37° C. Next, to check the bactericidal effects, 100 μL from each well was transferred and spread on sterile MH2 agar plates. The plates were incubated overnight at 37° C. and the number of colonies forming units (CFU) were calculated the following day. Readings of bacteria grown in media without any treatments were normalized to 100% as media control. For the mixed infection study, three freshly plated bacteria colonies each from PA, SA and ST plates were grown together in cation adjusted MH2 broth and proceeded as described above.

[2] = tested on: Pseudomonas aeruginosa PA BAA-2110; assay: Broth microdilution, PA BAA-2110 (lung infection in cystic fibrosis); type: cell-based, Pseudomonas aeruginosa (BAA-2110); details: PA BAA-2110
Method: Bacteria strains involved in lung infection in cystic fibrosis patients (PA-BAA 2110) and ear-eye infections (PA-CRM 9027) are treated with exemplary variant peptides, such as E1AM2 and Q19L.
as §1

[3] = tested on: human red blood cells (hRBCs); assay: Hemolysis assay; type: cell-based; details: for minimum concentration corresponding to 10% hemolysis (HC) / hemolysis (in words): hRBCs; for minimum concentration corresponding to 10% hemolysis (HC): 37° C.; for hemolysis (in words): FIG. 8 up to 100 μM
Method: The hemolytic score of the peptide variants and pexiganan (SEQ ID NO: 54) are compared to a strong hemolytic peptide, melittin 12 as a control. […] The minimum peptide concentration corresponding to 10% hemolysis (minimal hemolysis concentration, HC) of E1AM2=50 μM, V8LQ19L=12.5 μM, V8LQ19L C-2=3.125 μM, and pexiganan=12.5 μM respectively. Readings of the melittin at 3.125 μM were normalised to 100%.
Examination of hemolytic activity of ultra-short peptides was performed by isolating the red blood cells (RBCs) from human blood samples by centrifugation (1000 g, 4° C., 10 min) and resuspension in 27 mL PBS. This washing step was repeated four times before the RBCs were diluted to a 10% (v/v) suspension. […] Hemolytic properties of E1AM2 and pexiganan were evaluated with melittin used as a positive control, and PBS as a negative control. The plates were incubated at 37° C., for 30 min and then centrifuged (1258 g, 4° C., 6 min). 75 μL of supernatant were transferred into a flat-bottom clear 96-well plate and the OD576 nm was read. Readings of the melittin sample at 3.125 μM were normalized to 100%.

[4] = tested on: Pseudomonas aeruginosa (PA); assay: Broth microdilution anti-bacterial assay (CLSI), Pseudomonas aeruginosa; type: cell-based, Pseudomonas aeruginosa (ATCC 14213); details: PA; for MIC: overnight, 37° C., ≥99% inhibition; for MBC: ≥99% killing
[5] = tested on: Staphylococcus aureus (SA); assay: Antimicrobial resistance evolution assay, SA; type: cell-based; details: serial passaging; resistance = >4-fold MIC change
Excerpt: The development of antimicrobial resistance is defined by greater than a 4-fold change to their initial minimum inhibitory concentration (MIC) at day 1. Exemplary bacteria strains Pseudomonas aeruginosa (PA) and Staphylococcus aureus (SA) are subjected to continuous daily serial passaging over several days, with treatment of exemplary variant peptides E1AM2 (SEQ ID NO: 2) and Q19L (SEQ ID NO: […]) at subinhibitory concentrations. […] The treatments were discontinued when the MIC increased by more than four-fold from the initial MIC or when MIC reached >100 μM.
Briefly, sequential passaging of PA, and SA cells was done with sub-inhibitory concentrations of antibiotics or E1AM2 up to 4 weeks. The cells grown in those concentrations of antibiotics or peptides were diluted to A600 nm (OD600) of ~0.2 and serially passaged daily with the same concentrations at 37° C. with agitation at 24 h intervals.

[6] = tested on: critical and high priority pathogens (WHO); assay: Antibacterial effect against WHO critical and high priority pathogens; type: cell-based; details: FIG. 10
[7] = tested on: pathogens isolated from the infected tissues of DFU patients; assay: Antibacterial test on pathogens from infected DFU tissues; type: cell-based
Method: The varied colours and morphologies highlight the presence of multiple species and a diverse bacterial population within the infected tissues. Method: Freshly debrided infected tissues from DFU patients are weighed and immersed in 2 ml of MHB (Mueller-Hinton Broth) media for 48 hours to soften the tissues, facilitating the release of bacteria. These samples are subsequently sonicated for 1 minute at a 15A amplitude using a water bath sonicator to release the bacteria. The resultant slurry is plated on MHB media supplemented with 1.5% agar to isolate all bacteria. These bacterial isolates are then evaluated for their antibacterial efficacy following the CLSI (Clinical and Laboratory Standards Institute) guidelines.
In some examples, the effective bacteria killing concentration range for the variant peptides can be, but is not limited to at least about 1.5 μM, at least about 2 μM, at least about 2.5 μM, at least about 5 μM, at least about 7.5 μM, at least about 10 μM, at least about 12.5 μM, at least about 15 μM, at least about 15 μM, at least about 17.5 μM, at least about 20 μM, at least about 25 μM, at least about 35 μM, or at least about 45 μM. In one example, the effective biofilm disruption concentration ranges from about 1.5 μM-25 μM or 1.5 μM-50 μM. In another example, the concentration is between about 40 μM to 50 μM.

fibroblasts (HFF-1) = assay: Cell proliferation assay, HFF-1 fibroblasts; type: cell-based; details: 24 h
[8] = Comparison of AMPs in clinical trial with V8LQ19L (Table 13); details: ✓ / X

| Substance | MBC [1] [µM] | MBC [2] [µM] | MIC [2] [µM] | hemolysis ([3]; at respective MIC/MBC concentrations, melittin 3.125 μM = 100%, 30 min) | minimum concentration corresponding to 10% hemolysis (HC) ([3]; 30 min) [µM] | hemolysis (in words) [3] | MIC [4] [µM] | MIC ([4]; listed as VBLQ19L) [µM] | MBC [4] [µM] | MBC ([4]; listed as VBLQ19L) | development of antimicrobial resistance, SA [5] | antibacterial effect against WHO priority pathogens [6] | MIC values against WHO priority pathogens (in words) ([6]; compared to pexiganan and antibiotics) | elimination of pathogens in DFU tissue (in words) ([7]; FIG. 11) | elimination of bacteria from DFU tissue ([7]; at 50 μM) | HFF-1 proliferation (fibroblasts (HFF-1); certain concentrations) | cytotoxicity to HFF-1 (fibroblasts (HFF-1); up to highest tested concentrations (peptide), 3% (H2O2)) | Broad spectrum activity [8] | Healing support [8] |
| --- | --- | --- | --- | --- | --- | --- | --- | --- | --- | --- | --- | --- | --- | --- | --- | --- | --- | --- | --- |
| E1AM2: untagged (E1AM2), KKLLKKWVKLSKKALKLAQSL | 6.25 | 6.25 | 3.125 | ~ 0% | 50 | do not cause hemolysis | – | – | – | – | – | – | – | – | – | – | – | – | – |
| KKLLKKWLKLSKKALKLALSL-NH2 [V8LQ19L] | – | – | – | – | 12.5 | do not cause hemolysis | 1.56 | 1.58 | 1.56 | 1.58 µM and 1.56 µM | effective in preventing the acquisition of AMR | potent fast-acting, broad-spectrum antibacterial effect | the lowest minimum inhibitory concentration (MIC) values | effective elimination of pathogens | over 99% | enhanced proliferation | noncytotoxic | ✓ | ✓ |
